Assay results taken from PMC10545747, “Development of cyclopeptide inhibitors of cGAS targeting protein-DNA interaction and phase separation” (Nature Communications, 2023).
“And” between values parts separate entries of the source, which are not always exact repeats. Equal entries are not always repeated. Square brackets hold non-standard residues; d marks the D form. Peptide text beside a SMILES is read from it.

How the values were obtained:
hcGAS-FL + FAM-ISD = hcGAS-FL + FAM-ISD (Homo sapiens, UniProt Q8N884); assay: biochemical
hcGAS-FL + FAM-ISD, sequence (Q8N884 whole entry): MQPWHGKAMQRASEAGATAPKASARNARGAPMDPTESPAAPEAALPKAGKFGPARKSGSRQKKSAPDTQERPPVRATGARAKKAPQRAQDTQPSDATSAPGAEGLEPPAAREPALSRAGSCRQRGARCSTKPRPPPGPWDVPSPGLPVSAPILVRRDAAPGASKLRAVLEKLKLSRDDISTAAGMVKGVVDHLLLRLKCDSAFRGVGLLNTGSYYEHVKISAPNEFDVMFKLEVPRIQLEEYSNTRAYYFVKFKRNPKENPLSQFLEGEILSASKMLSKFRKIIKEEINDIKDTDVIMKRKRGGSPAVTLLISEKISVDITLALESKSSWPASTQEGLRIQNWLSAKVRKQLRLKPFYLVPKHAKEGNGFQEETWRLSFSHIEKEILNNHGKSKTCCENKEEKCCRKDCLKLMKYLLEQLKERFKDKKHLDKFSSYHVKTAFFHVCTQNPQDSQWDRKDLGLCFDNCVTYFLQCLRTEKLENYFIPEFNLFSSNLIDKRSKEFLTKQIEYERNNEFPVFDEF
Method: Purified hcGAS-FL (300 nM) or hcGAS-FL (D191R) (300 nM) and FAM-labeled DNA (FAM-ISD) (40 nM) were incubated with or without XQ2 in buffer (20 mM HEPSE, pH 7.5, 125 mM KCl, 10 mM MgCl2). Samples were dispensed in 30 μ L final volumes per well into a 384-well flat-bottom black plate (Corning 3575). The polarization was detected by a microplate reader (BioTek Synergy H1) with a fluorescence polarization filter cube (excitation wavelength: 485 ± 10 nm; emission wavelength: 528 ± 10 nm) immediately.

THP1 cells = assay: ELISA of IFN-β and CXCL10 after HSV-1 infection; type: cell-based, human
Method: THP1 cells were seeded into 96-well plates, and cell culture supernatants were collected and analyzed by ELISA kits for human IFNβ levels (R&D Systems, Cat# DY814-05) and human CXCL10 levels (R&D Systems, Cat# DY266-05) according to the manufacturer’s instructions. Mice serum was collected and analyzed by ELISA kits for mouse IFNβ levels (R&D Systems, Cat# DY8234-05) and mouse CXCL10 levels (R&D Systems, Cat# DY466-05) according to the manufacturer’s protocols.

[1] = molecular target: T1, hcGAS-FL (D191R) mutant + FAM-ISD (Homo sapiens, UniProt Q8N884, D191R); assay: Fluorescence polarization competition of FAM-ISD binding
T1 construct: The gene encoding full-length human cGAS (hcGAS-FL); 6xHis-SUMO (N, cleaved yes); made in house; host or cells: Escherichia coli BL21 (DE3)
T1 sequence (Q8N884 whole entry D191R): as the sequence (Q8N884 whole entry) above, with D191R counted along it

[2] = molecular target: T2, full-length human cGAS (hcGAS-FL) (Homo sapiens, UniProt Q8N884); assay: Surface plasmon resonance (SPR); type: binding
T2 construct: The gene encoding full-length human cGAS (hcGAS-FL); 6xHis-SUMO (N, cleaved yes); made in house; host or cells: Escherichia coli BL21 (DE3)
T2 sequence (Q8N884 whole entry): as the sequence (Q8N884 whole entry) above
Method: (§1) All SPR binding studies were performed with a Biacore 8 K instrument (GE Healthcare Life Sciences). hcGAS-FL / hcGAS-ΔN (1 mg mL^−1) was immobilized in a CM5 chip by EDC/NHS method. The tested peptide was diluted with running buffer (20 mM HEPES, pH 7.5, 125 mM KCl,10 mM MgCl2). All the samples contained the same concentration of DMSO (0.5%). The tested peptide was injected at a flow rate of 30 μL min^−1 for 200 s of association, followed by 200 s of disassociation at 25 °C. The final graphs were obtained by subtracting blank sensorgrams. The data were analyzed with Biacore Insight Evaluation software.

[3] = molecular target: T3, truncated cGAS (hcGAS-ΔN, residues 147–522) (Homo sapiens, UniProt Q8N884); assay: Surface plasmon resonance (SPR); type: binding
T3 construct: N-terminally truncated human cGAS (hcGAS-ΔN, residues 147–522); 6xHis-SUMO (N, cleaved yes); made in house; host or cells: Escherichia coli BL21 (DE3)
T3 sequence (Q8N884 147-522, stated change not applied): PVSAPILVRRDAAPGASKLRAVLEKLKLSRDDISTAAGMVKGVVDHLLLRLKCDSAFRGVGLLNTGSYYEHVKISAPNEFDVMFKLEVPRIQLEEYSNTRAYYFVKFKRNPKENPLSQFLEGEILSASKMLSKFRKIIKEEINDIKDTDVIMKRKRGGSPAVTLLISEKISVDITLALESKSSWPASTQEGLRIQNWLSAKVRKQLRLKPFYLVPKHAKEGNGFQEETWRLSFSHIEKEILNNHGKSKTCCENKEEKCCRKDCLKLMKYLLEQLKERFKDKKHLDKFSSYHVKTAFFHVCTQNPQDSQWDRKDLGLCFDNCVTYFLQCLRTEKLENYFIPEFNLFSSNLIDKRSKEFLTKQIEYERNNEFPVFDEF
Method: as §1

[4] = test system: THP1 cells stimulated with SATE-cddA, 2’3’-cGAMP or ADU-S100 (STING agonists); assay: qPCR of IFNB1 mRNA in THP1 cells stimulated by STING agonists; type: cell-based, human; set-up: key to IFNB1 mRNA level (Fig. S7c): relative mRNA level, target CT normalized to GAPDH CT
Method: The indicated cells were stimulated with either ISD (Sangon Biotech), HSV-1 (Provided by Dr. Zhengfan Jiang), HSV60mer (Sangon Biotech), SATE-cddA[70], 2’3’-cGAMP (Invivogen, Cat# tlrl-nacga23-1), ADU-S100 (MedChemExpress, Cat# HY-12885A) or Poly(I:C) (Invivogen, Cat# tlrl-pic) after XQ2 or XQ2B treatment. Total RNA was isolated from indicated cells that incubated with the drugs for indicated time or mice tissues by using NucleoZOL reagent (MACHEREY-NAGEL) according to the manufacturer’s instructions. The quantifications of mRNA levels were carried out by real-time PCR using a PerfectStart® Uni RT&qPCR Kit (TransGen Biotech) on the QuantStudio 5 qPCR machine (Applied Biosystems). Samples were carried out in triplicate and the target CT values were normalized to GAPDH CT values. Primers of qPCR used in this study can be found in Supplementary Table S2.
IFNB1 mRNA relative level […]
Supplementary Fig. 7. XQ2B inhibits the activity of cGAS in vitro. […]
(e) THP1 cells were pretreated
Data are representative of
Source data are provided as a Source Data file.

[5] = Pharmacokinetics after intravenous administration; details: C57BL/6, mouse, whole blood, 10 mg/kg
Method: (§2) Whole blood samples were collected in EDTA-K2 surface-coated tubes at 0.083, 0.25, 0.5, 1, 2, 5, 7, 24 h post administration. The results were analyzed by LC-MS.

in vivo = details: C57BL/6, mouse, iv, 10 mg/kg
Method: as §2

SMILES: CC(C)C[C@@H]1NC(=O)[C@H](CCCNC(=N)N)NC(=O)[C@H](C(C)C)NC(=O)[C@@H]2CCCN2C(=O)[C@@H](Cc2ccccc2)NC(=O)[C@H](CC(C)C)NC(=O)[C@H](CCCNC(=N)N)NC(=O)[C@H](C(C)C)NC(=O)[C@H](C)NC(=O)[C@@H](Cc2ccccc2)NC1=O [XQ2, Cyclo (LfAVRLfPVR)] (cyclo(L[dF]AVRL[dF]PVR))
- IC50 (hcGAS-FL + FAM-ISD): 19.2 ± 6.7 µM
- production of IFN-β and CXCL10 upon HSV-1 infection (THP1 cells; 10 μM): significantly inhibited the production of IFN-β and CXCL10
- IFN-β protein, ELISA, Fig. 5a (THP1 cells; HSV-1 1×10^5 pfu 24 h, XQ2 10 μM): 82.1785 and 88.212 and 94.6416
- CXCL10 protein, ELISA, Fig. 5b (THP1 cells; HSV-1 2×10^4 pfu 24 h, XQ2 10 μM): 81.286 and 72.3045 and 81.612
- CXCL10 protein, ELISA, Fig. 5b (THP1 cells; HSV-1 5×10^4 pfu 24 h, XQ2 10 μM): 1196.79 and 1171.64 and 1198.54
- inhibition of dsDNA binding to hcGAS-FL (D191R), FP [1]: markedly reduced
- Response (RU), SPR, Fig. 3a ([2]; XQ2 2.5 μM): 57.4165 RU
- Response (RU), SPR, Fig. 3a ([2]; XQ2 5 μM): 140.669 RU
- Response (RU), SPR, Fig. 3a ([2]; XQ2 10 μM): 252.736 RU
- Kd ([2]; hcGAS-FL, one-to-one binding model, ± 95% CI): 35.9 µM and ~35 µM
- Response (RU), SPR, Fig. S4b ([3]; XQ2 2.5 μM): 32.0968 RU
- Response (RU), SPR, Fig. S4b ([3]; XQ2 5 μM): 115.953 RU
- Response (RU), SPR, Fig. S4b ([3]; XQ2 10 μM): 275.186 RU
- Kd ([3]; hcGAS-ΔN, Fig. S4b): 86.5 ± 76.2 µM

SMILES: CC(C)C[C@@H]1NC(=O)[C@H](CCCNC(=N)N)NC(=O)[C@H](C(C)C)NC(=O)[C@@H]2CCCN2C(=O)[C@@H](Cc2ccccc2)NC(=O)[C@H](CC(C)C)NC(=O)[C@H](CCCNC(=N)N)NC(=O)[C@H]([C@@H](C)O)NC(=O)[C@H](C)NC(=O)[C@@H](Cc2ccccc2)NC1=O [XQ2B] (cyclo([dF]ATRL[dF]PVRL))
- IFNB1 mRNA level (Fig. S7c) ([4]; 2'3'-cGAMP, XQ2B): 4003.21 and 3809.06 and 3708.08
- IFNB1 mRNA level (Fig. S7c) ([4]; SATE-cddA, XQ2B): 747.639 and 650.174 and 712.905
- signaling induced by STING agonists ([4]; THP1, 10 μM): no significant effect on signaling induced by STING agonists
- IFNB1 mRNA level (Fig. S7c) ([4]; c-di-AM(PS)2, XQ2B): 9.033 and 9.206 and 10.1658
- AUC(0-inf) [5]: 157 µg·h/mL
- AUC(0-t) [5]: 135 µg·h/mL
- Cmax [5]: 105 µg/mL
- MRT last [5]: 1.2 h
- Tmax [5]: 4.98 min
- Vd [5]: 0.095 L/kg
- clearance [5]: 1.18 mL/min/kg
- half-life (in vivo): 66 min
- level at 0.083 h (in vivo; Conc (ng/ml), Fig. S11a): 101 µg/mL
- level at 0.25 h (in vivo; Conc (ng/ml), Fig. S11a): 63.6 µg/mL
- level at 0.5 h (in vivo; Conc (ng/ml), Fig. S11a): 50.4 µg/mL
